In article PMC3661926 (Acta Neuropathologica, 2013):
Like-named read-outs stand apart in the source and are kept apart here.

What was measured:
139A = settings: mouse, in vivo, cited from earlier work
α-synuclein (α-syn) = molecular target: T1, α-synuclein (α-syn) (Homo sapiens, UniProt P37840); test: α-synuclein in vitro oligomer formation assay (SIFT); format: biochemical; settings: read-out: % inhibition α-syn SIFT
T1 construct: made in house
Experimental: Expression and purification of recombinant wild-type α-synuclein (α-syn) was performed according to established protocols. Fluorescent labelling of α-syn and quality control were performed as described.
The α-syn aggregation assay was conducted with minor modifications as published previously. […] The concentration of α-syn was approximately 20 nM. In all experiments, α-syn aggregation was induced by final concentrations of 1 % DMSO and 10 μM FeCl3. Compounds were diluted into the assay mixture from 10-fold stock solutions containing 10 % DMSO (v/v), resulting in a final concentration of 1 % DMSO in all samples. “Low control” measurements for threshold setting were obtained without FeCl3 and DMSO. Experiments were started by diluting the 5-fold stock solution of fluorescently labelled α-syn in 50 mM Tris-buffer, pH 7.0, containing 1 % DMSO, 10 μM FeCl3 and compounds in concentrations ranging from 1–10 μM.
Aggregation of α-syn was measured by scanning for intensely fluorescent targets (SIFT). […] Excitation power was 200 μW at 488 nm and 300 μW at 633 nm. Measurement time was 10 s. Scanning parameters were set to 100 μm scan path length, 50 Hz beam scanner frequency, and 2,000 μm positioning table movement. The frequency of specific combinations of “green” and “red” photon counts was recorded in a two-dimensional intensity distribution histogram, as described previously. Evaluation of SIFT data in two-dimensional intensity distribution histograms was performed by summing up the numbers of photons from high intensity bins using a two-dimensional SIFT software module (Evotec-Technologies). For threshold setting, non-aggregated reference samples were used. The photon count in bins above the threshold was considered aggregate signal.

[1] = molecular target: PrP^Sc (RML prion strain) (Mus musculus, UniProt P04925); test: biochemical; settings: read-out: % inhibition PrP^Sc PMCA
Chain of PrP^Sc (RML prion strain) (P04925 23-230 limits assumed): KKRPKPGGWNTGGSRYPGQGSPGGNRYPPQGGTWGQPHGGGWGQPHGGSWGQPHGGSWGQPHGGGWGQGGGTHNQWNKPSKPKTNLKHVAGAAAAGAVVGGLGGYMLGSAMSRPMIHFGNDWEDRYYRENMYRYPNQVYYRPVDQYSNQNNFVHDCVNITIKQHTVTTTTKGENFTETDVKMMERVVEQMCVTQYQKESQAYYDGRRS

RML scrapie = test: whole plant or invertebrate; format: in vivo, C57BL/6 mice; settings: for inhibition in vivo at 1 mg: in Mus musculus, po, 2880 h, read-out: % inhibition PrP^Sc in vivo (a); for % inhibition PrP^Sc in vivo (b): PrP^Sc level in spleen 35 days after i.p. infection, 34 days treatment with 1 mg compound oral in peanut butter
[2] = mouse, in vivo, po
[3] = system: prion strains RML, ME7, 301C, sCJD, vCJD; format: biochemical, mouse and human; settings: 1 μl of 10 mM compound solution in DMSO
[4] = system: cultured human peripheral lymphocytes
prion = settings: cited from earlier work
[5] = in vivo; cited from earlier work
actin = format: biochemical
RML = settings: mouse, in vivo, cited from earlier work
M1000 = settings: mouse, in vivo, ip; cited from earlier work
[6] = relative to high control, 10 μM compound, 1 % DMSO, 10 μM FeCl3

Compound	inhibition at 10 µM [1] [%]	inhibition in vivo at 1 mg (RML scrapie) [%]	conc. brain [2]	inhibition at 10 µM (α-synuclein (α-syn); [6]) [%]	also measured
O=[N+]([O-])c1ccc(-c2cc(-c3cccc(Cl)c3)n[nH]2)cc1	–	–	–	–	melting point: 275 to 276 °C
CC[C@H](C)C(=O)O[C@H]1C[C@H](O)C=C2C=C[C@H](C)[C@H](CC[C@@H](O)C[C@@H](O)CC(=O)O)[C@H]21 [Pravastatin]	–	–	–	–	Median/Mean* Survival Therapy (139A; po, 200 mg/kg): 194 days; difference of survival therapy vs control (139A; po, 200 mg/kg): 17 days
COc1cc(/C=C/C(=O)CC(=O)/C=C/c2ccc(O)c(OC)c2)ccc1O [Curcumin]	–	–	–	–	Median/Mean* Survival Therapy (139A; po, 50 mg/kg): 208 days; difference of survival therapy vs control (139A; po, 50 mg/kg): 12 days
Brc1cccc(-c2cc(-c3ccc4c(c3)CCO4)[nH]n2)c1 [sery312b]	42	13	3,6 nmol/g	–	inhibition at 10 µM (α-synuclein (α-syn)): < 10%
Brc1cccc(-c2c[nH]c(-c3ccc4c(c3)OCO4)n2)c1 [sery345]	< 10	< 10	16.6 nmol/g	57	–
Brc1ccccc1-c1cc(-c2ccc3c(c2)OCO3)n[nH]1 [anle234b]	< 10	< 10	32.1 nmol/g	< 10	inhibitory activity in PMCA, all prion strains tested [3]: inactive
Fc1cccc(-c2cc(-c3ccc4c(c3)OCO4)n[nH]2)c1 [anle186b]	48	–	31.1 nmol/g	< 10	% inhibition PrP^Sc in vivo (c) (RML scrapie; PrP^Sc level in brain 106 days after i.c. infection, treatment 24 days: 14 days i.p. 0.84 mg, 2 × 5 days oral gavage 1 mg): 30^c %; change of PrPSc levels in brain, mixed application scheme (RML scrapie; from 80 dpi: 14 days i.p. 0.84 mg, 2 x 5 days gavage 1 mg, measured at 95 and 106 dpi): slight reduction of PrPSc accumulation
Fc1cccc(-c2nc(-c3ccc4c(c3)OCO4)no2)c1	–	–	–	–	melting point: 161 °C
c1cc2c(cc1-c1cc(-c3ccc4c(c3)OCO4)[nH]n1)OCO2 [anle232b]	26	23	–	< 10	–
CO[C@@]12[C@H](COC(N)=O)C3=C(C(=O)C(C)=C(N)C3=O)N1C[C@@H]1N[C@@H]12 [Mitomycin C, reference compound]	–	–	–	–	chromosomal damage by positive controls [4]: significant damage
CCN(CC)CCCC(C)Nc1c2ccc(Cl)cc2nc2ccc(OC)cc12 (centres unmarked) [quinacrine]	–	–	–	–	anti-prion activity in cell culture (prion): high anti-prion activity in cell culture; concentrations reached in the brain [5]: does not reach sufficient concentrations in the brain
CN(C)c1ccc(-c2cc(-c3cccc(Br)c3)n[nH]2)cc1 [anle253b]	80	59	2.1 nmol/g	50	effect on actin polymerization (actin): do not affect actin polymerization
FC(F)(F)c1cccc(-c2cc(-c3ccc4c(c3)OCO4)n[nH]2)c1 [anle236b]	< 10	12	39.3 nmol/g	< 10	–
Nc1ccc(-c2cc(-c3ccc(Cl)cc3)[nH]n2)cc1	–	–	–	–	melting point: 213 to 214 °C
OCCN1CCN(CCCN2c3ccccc3Sc3ccc(C(F)(F)F)cc32)CC1 [Fluphenazine]	–	–	–	–	Median/Mean* Survival Therapy (139A; ip, 10 mg/kg): 205 days; difference of survival therapy vs control (139A; ip, 10 mg/kg): 35 days
CCC(C)(C)C(=O)O[C@H]1C[C@@H](C)C=C2C=C[C@H](C)[C@H](CC[C@@H]3C[C@@H](O)CC(=O)O3)[C@H]21 [Simvastatin]	–	–	–	–	Median/Mean* Survival Therapy (RML; po, 20 mg/kg): 167 days; difference of survival therapy vs control (RML; po, 20 mg/kg): 19 days
CC(CN(C)C)CN1c2ccccc2CCc2ccccc21 (centres unmarked) [Trimipramine]	–	–	–	–	Median/Mean* Survival Therapy (139A; ip, 10 mg/kg): 210 days; difference of survival therapy vs control (139A; ip, 10 mg/kg): 40 days
Na2CaCDTA	–	–	–	–	Median/Mean* Survival Therapy (M1000): 189 days; difference of survival therapy vs control (M1000): 20 days
Ic1cccc(-c2cc(-c3ccc4c(c3)OCO4)n[nH]2)c1 [anle197b]	16	–	–	< 10	% inhibition PrP^Sc in vivo (b) (RML scrapie): <10^b %
Fc1ccc(F)c(-c2cc(-c3ccc4c(c3)OCO4)n[nH]2)c1	–	–	–	–	melting point: 225 to 226 °C
O=P1(N(CCCl)CCCl)NCCCO1 (centres unmarked) [cyclophosphamide, reference compound]	–	–	–	–	chromosomal damage by positive controls [4]: significant damage
Brc1ccc(-c2cc(-c3ccc4c(c3)OCO4)n[nH]2)cc1 [sery378b]	34	39	26 nmol/g	74	–
Br.Oc1cc(-c2cc(-c3cc(Br)cc(Br)c3)n[nH]2)cc(O)c1O [anle145c]	–	–	–	–	effect on actin polymerization (actin): do not affect actin polymerization
Clc1cccc(-c2cc(-c3ccc4c(c3)OCO4)n[nH]2)c1 [sery335b, 3-(1,3-Benzodioxol-5-yl)-5-(3-chlorophenyl)-1H-pyrazole]	52	68	29.6 nmol/g	90	% inhibition PrP^Sc in vivo (b) (RML scrapie): 46%
C=CC[C@@H]1/C=C(\C)C[C@H](C)C[C@H](OC)[C@H]2O[C@@](O)(C(=O)C(=O)N3CCCC[C@H]3C(=O)O[C@H](/C(C)=C/[C@@H]3CC[C@@H](O)[C@H](OC)C3)[C@H](C)[C@@H](O)CC1=O)[C@H](C)C[C@@H]2OC [Tacrolimus]	–	–	–	–	Median/Mean* Survival Therapy (RML; ip, 5 mg/kg): 35 days; difference of survival therapy vs control (RML; ip, 5 mg/kg): 9 days
Brc1cccc(-c2cc(-c3ccc4[nH]cnc4c3)n[nH]2)c1 [sery417]	51	< 10	0 nmol/g	< 10	–
Oc1ccc(-c2cc(-c3cccc(Br)c3)n[nH]2)cc1O [anle138c]	19	< 10	–	99	effect on actin polymerization (actin): do not affect actin polymerization
Cl.Nc1ccc(-c2cc(-c3cccc(Br)c3)[nH]n2)cc1 [sery384]	55	< 10	13,9 nmol/g	–	inhibition at 10 µM (α-synuclein (α-syn)): 99%
